Patent US20140135310A1, “SULPHONAMIDE DERIVATIVES OF ALICYCLIC AMINES FOR THE TREATMENT OF CENTRAL NERVOUS SYSTEM DISEASES” (Adamed Sp. z o.o., priority 2011, published 2014)

Assays:
[1] = system: α1 adrenergic receptors (rat cerebral cortex); experiment: Radioligand binding assay, adrenergic α1 receptors; conditions: test compound 1×10^−6 M
Method in brief: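 Values derive from radioligand displacement, with non-specific binding defined by excess cold ligand and detection by scintillation. Hill-fit IC50s were converted to Ki via Cheng-Prusoff using Scatchard-derived Kd; percent inhibition of control specific binding also reported.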

[2] = molecular target: T1, M3 muscarinic receptors (Homo sapiens, UniProt P20309); experiment: Radioligand binding assay, muscarinic M3 receptors; conditions: test compound 1×10^−6 M
T1 construct: expressed in transfected cells; host or cells: CHO cells
T1 sequence (P20309 whole entry): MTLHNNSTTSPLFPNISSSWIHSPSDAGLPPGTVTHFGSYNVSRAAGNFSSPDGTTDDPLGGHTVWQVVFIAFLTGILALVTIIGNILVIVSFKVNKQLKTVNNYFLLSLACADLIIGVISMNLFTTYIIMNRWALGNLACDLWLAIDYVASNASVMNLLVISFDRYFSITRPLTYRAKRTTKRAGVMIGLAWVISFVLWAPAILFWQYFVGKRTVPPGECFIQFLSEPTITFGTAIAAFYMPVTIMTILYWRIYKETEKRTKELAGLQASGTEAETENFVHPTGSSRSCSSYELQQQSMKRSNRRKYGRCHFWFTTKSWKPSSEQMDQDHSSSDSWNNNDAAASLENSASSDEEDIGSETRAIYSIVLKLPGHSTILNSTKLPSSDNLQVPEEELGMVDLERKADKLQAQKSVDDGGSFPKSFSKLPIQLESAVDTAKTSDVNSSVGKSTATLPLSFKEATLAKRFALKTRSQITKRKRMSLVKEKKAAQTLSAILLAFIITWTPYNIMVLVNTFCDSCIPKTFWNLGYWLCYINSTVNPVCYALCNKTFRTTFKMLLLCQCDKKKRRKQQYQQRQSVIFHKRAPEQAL
Description: (§1) The specific ligand binding to the receptors is defined as the difference between the total binding and the non-specific binding determined in the presence of the excess of unlabelled ligand.
(§2) The results are expressed as a percent of control specific binding ((measured specific binding/control specific binding)×100) and as a percent inhibition of control specific binding (100−((measured specific binding/control specific binding)×100)) obtained in the presence of the test compounds. The specific ligand binding to the receptors is defined as the difference between the total binding and the nonspecific binding determined in the presence of an excess of unlabelled ligand. Scintillation counting was the method of detection of ligand binding. The IC50 values (concentration causing a half-maximal inhibition of control specific binding) were determined by non-linear regression analysis of the competition curves generated with mean replicate values using Hill equation curve fitting (Y=D+[(A−D)/(1+(C/C50)nH)], where Y=specific binding, D=minimum specific binding, A=maximum specific binding, C=compound concentration, C50=IC50, and nH=slope factor). This analysis was performed using a software developed at Cerep (Hill software) and validated by comparison with data generated by the commercial software SigmaPlot® 4.0 for Windows® (© 1997 by SPSS Inc.). The inhibition constants (Ki) were calculated using the Cheng Prusoff equation (Ki=IC50/(1+(L/KD)), where L=concentration of radioligand in the assay, and KD=affinity of the radioligand for the receptor). A scatchard plot was used to determine the Kd.
Experimental conditions for tests are given in Table 10, and results of tests for representative compounds are given in Table 11.

[3] = molecular target: T2, 5-HT2C receptor (Homo sapiens, UniProt P28335); experiment: Radioligand binding assay, serotoninergic 5-HT2C receptors; conditions: test compound 1×10^−6 M
T2 construct: expressed in transfected cells; host or cells: HEK-293 cells
T2 sequence (P28335 33-458): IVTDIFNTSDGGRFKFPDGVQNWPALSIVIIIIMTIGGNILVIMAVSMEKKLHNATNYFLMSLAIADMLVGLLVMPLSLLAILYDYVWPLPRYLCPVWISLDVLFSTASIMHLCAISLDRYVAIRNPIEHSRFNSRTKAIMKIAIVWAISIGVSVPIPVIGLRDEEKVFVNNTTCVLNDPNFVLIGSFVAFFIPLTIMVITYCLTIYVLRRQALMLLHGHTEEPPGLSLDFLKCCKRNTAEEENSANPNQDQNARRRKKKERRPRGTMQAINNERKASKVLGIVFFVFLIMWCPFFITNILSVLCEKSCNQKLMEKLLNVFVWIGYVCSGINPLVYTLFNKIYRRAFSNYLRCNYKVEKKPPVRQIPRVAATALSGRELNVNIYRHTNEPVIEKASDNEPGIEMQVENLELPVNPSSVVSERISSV
Description: as §1, §2
Experimental conditions for tests are given in Table 4, and results of tests for representative compounds of the invention are given in Table 5a and 5b (receptors 5-HT1A, 5-HT2A, 5-HT6 and 5-HT7) and in Table 6 (receptors 5-HT2C).

[4] = molecular target: dopaminergic receptors D2 (Homo sapiens, UniProt P14416); experiment: Radioligand binding assay, dopaminergic D2 receptors; conditions: for inhibition at 1 µM: binding assay, test compound 1×10^−6 M; for Ki: read-out: Inhibition constants Ki for D2 receptors, D2
dopaminergic receptors D2, sequence (P14416 whole entry): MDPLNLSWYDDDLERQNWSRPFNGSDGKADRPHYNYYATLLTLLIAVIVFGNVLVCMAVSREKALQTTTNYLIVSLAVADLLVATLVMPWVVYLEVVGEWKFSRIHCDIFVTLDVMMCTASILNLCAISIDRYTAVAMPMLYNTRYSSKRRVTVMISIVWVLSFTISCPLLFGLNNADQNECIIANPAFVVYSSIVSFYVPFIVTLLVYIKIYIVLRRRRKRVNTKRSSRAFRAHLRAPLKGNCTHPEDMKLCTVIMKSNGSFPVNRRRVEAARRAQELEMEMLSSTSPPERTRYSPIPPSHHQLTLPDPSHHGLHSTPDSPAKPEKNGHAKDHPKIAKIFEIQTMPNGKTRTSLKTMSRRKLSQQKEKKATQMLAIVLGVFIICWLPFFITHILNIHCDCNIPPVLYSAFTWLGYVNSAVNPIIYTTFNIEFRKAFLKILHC
Method in brief: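 Radioligand displacement was measured by scintillation counting, with non-specific binding defined in the presence of excess unlabelled ligand. Competition curves were fitted to the Hill equation to give IC50, and Ki was derived by the Cheng–Prusoff equation.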

[5] = molecular target: dopaminergic receptors D3 (Homo sapiens, UniProt P35462); experiment: Radioligand binding assay, dopaminergic D3 receptors; conditions: test compound 1×10^−6 M
dopaminergic receptors D3, sequence (P35462 whole entry): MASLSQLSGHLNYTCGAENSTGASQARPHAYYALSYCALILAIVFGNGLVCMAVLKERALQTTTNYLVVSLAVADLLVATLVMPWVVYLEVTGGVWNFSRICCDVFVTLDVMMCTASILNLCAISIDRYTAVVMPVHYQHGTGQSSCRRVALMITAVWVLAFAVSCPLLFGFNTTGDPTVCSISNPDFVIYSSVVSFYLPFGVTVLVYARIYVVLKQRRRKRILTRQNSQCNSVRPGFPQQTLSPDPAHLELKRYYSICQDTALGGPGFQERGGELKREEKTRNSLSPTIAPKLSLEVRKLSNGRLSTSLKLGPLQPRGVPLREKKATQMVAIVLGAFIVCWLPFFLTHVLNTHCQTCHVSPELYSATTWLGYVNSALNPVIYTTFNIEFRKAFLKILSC
Method in brief: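 Competition radioligand binding at human D2, D3 and D4.4 receptors, detected by scintillation counting; nonspecific binding defined with excess unlabelled ligand. Results as percent inhibition of control specific binding; IC50 by Hill-equation nonlinear regression; Ki via Cheng-Prusoff, with radioligand KD from Scatchard plot.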

[6] = molecular target: T3, H1 histaminergic receptors (Homo sapiens, UniProt P35367); experiment: Radioligand binding assay, histaminergic H1 receptors; conditions: human recombinant (HEK-293 cells), [3H]pyrilamine 1 nM
T3 construct: expressed in transfected cells; host or cells: HEK-293 cells
T3 sequence (P35367 whole entry): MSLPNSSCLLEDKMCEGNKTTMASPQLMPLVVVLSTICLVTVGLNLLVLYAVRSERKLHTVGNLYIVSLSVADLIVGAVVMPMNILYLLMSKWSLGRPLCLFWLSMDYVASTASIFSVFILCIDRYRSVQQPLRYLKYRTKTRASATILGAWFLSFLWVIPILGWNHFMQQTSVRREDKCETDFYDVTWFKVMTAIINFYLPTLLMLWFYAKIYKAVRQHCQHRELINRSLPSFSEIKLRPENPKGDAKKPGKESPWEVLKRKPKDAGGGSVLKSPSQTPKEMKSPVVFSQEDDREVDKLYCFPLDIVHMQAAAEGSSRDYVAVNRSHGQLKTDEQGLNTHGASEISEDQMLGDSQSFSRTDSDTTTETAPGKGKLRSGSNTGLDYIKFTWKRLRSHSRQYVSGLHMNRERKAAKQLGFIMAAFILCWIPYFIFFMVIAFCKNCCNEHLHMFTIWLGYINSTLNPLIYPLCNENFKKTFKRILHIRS
Description: as §1, §2
Experimental conditions for tests are given in Table 14, and results of tests for representative compounds are presented in Table 15.

[7] = molecular target: T4, 5-HT1A receptor (rat hippocampus) (Rattus norvegicus, UniProt P19327); experiment: Radioligand binding assay, serotoninergic 5-HT1A receptors; conditions: binding assay result in %, Table 5a
T4 construct: hippocampus; from tissue; host or cells: rat hippocampus
T4 sequence (P19327 1-422): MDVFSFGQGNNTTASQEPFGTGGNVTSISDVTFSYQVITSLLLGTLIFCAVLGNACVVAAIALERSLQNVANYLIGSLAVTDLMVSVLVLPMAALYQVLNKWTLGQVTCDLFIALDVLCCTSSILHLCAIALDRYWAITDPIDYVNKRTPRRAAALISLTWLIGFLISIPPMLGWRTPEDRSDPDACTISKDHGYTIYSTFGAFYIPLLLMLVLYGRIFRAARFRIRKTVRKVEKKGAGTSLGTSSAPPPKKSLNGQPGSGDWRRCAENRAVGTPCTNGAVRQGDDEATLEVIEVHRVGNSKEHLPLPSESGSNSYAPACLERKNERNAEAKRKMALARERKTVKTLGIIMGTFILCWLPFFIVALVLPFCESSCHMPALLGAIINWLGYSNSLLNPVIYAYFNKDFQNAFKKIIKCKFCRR

[8] = molecular target: T5, 5-HT2A receptor (Homo sapiens, UniProt P28223); experiment: Radioligand binding assay, serotoninergic 5-HT2A receptors; conditions: for inhibition at 1 µM: binding assay result in %, Table 5a; for Ki: read-out: Inhibition constants Ki, 5-HT2A
T5 construct: purchased PerkinElmer
T5 sequence (P28223 whole entry): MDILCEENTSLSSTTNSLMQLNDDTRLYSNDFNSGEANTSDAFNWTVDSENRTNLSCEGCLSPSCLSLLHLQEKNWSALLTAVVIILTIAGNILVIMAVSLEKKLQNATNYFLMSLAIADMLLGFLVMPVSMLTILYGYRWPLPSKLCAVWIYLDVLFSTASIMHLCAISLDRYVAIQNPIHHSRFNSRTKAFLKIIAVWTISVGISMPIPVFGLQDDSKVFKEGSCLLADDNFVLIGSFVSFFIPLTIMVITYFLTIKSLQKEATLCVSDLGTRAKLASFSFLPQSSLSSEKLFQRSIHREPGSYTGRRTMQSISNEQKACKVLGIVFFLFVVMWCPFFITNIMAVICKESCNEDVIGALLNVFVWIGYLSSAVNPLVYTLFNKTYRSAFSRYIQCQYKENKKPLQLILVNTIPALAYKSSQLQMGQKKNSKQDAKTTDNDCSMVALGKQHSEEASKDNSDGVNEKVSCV
Method in brief: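 Radioligand competition binding with scintillation counting; nonspecific binding defined by excess unlabelled ligand. Data as percent inhibition of control specific binding. IC50 by Hill-equation fit of competition curves; Ki by Cheng-Prusoff, with radioligand Kd from Scatchard plot.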

| Structure (SMILES) | α1 [%] [1] | inhibition at 1 µM [2] | inhibition at 1 µM [3] | inhibition at 1 µM [4] | Ki [4] | inhibition at 1 µM [5] | inhibition at 1 µM [6] | inhibition at 1 µM [7] | inhibition at 1 µM [8] | Ki [8] |
| --- | --- | --- | --- | --- | --- | --- | --- | --- | --- | --- |
| O=S(=O)(N[C@H]1CCN(CCCc2noc3cc(F)ccc23)C1)c1cc2ccccc2s1 [Compound 197, N-[(3S)-1-[3-(6-Fluoro-1,2-benzoxazol-3-yl)propyl]pyrrolidin-3-yl]benzo-thiophene-2-sulphonamide] | 93% | 26% | 84% | 101% | 5.8 nM | 83% | 76% | 56% | 99% | 0.7 nM |
| Cc1c(S(=O)(=O)N[C@@H]2CCN(CCCc3noc4cc(F)ccc34)C2)sc2ccc(F)cc12 [Compound 202, 5-Fluoro-N-[(3R)-1-[3-(6-fluoro-1,2-benzoxazol-3-yl)propyl]pyrrolidin-3-yl]-3-methyl-benzothiophene-2-sulphonamide] | 98% | 9% | 88% | 101% | 1.2 nM | 96% |  | 65% | 99% | 1.4 nM |
| O=S(=O)(NC1CCN(CCCc2noc3cc(F)ccc23)C1)c1cc2ccc(F)cc2s1 (centres unmarked) [Compound 234, 6-Fluoro-N-[1-[3-(6-fluoro-1,2-benzoxazol-3-yl)propyl]pyrrolidin-3-yl]benzothiophene-2-sulphonamide] | 92% | 17% | 86% | 99% |  | 94% | 75% | 45% | 100% |  |
| COc1cccc(S(=O)(=O)NCC2CN(CCCc3noc4cc(F)ccc34)C2)c1 [Compound 143, N-[[1-[3-(6-Fluoro-1,2-benzoxazol-3-yl)propyl]azetidin-3-yl]methyl]-3-methoxy-benzenesulphonamide] | 97% | -4% | 68% | 80% |  | 46% | 36% | 44% | 94% |  |
| O=S(=O)(N[C@H]1CCN(CCCc2noc3cc(F)ccc23)C1)c1ccc2ccccc2c1 [Compound 207, N-[(3S)-1-[3-(6-Fluoro-1,2-benzoxazol-3-yl)propyl]pyrrolidin-3-yl]-naphthalene-2-sulphonamide] | 95% | 12% |  | 101% | 3.8 nM | 85% | 65% | 58% | 100% | 0.5 nM |
| O=S(=O)(N[C@@H]1CCN(CCCc2noc3cc(F)ccc23)C1)c1ccc2cc(Cl)ccc2c1 [Compound 200, 6-Chloro-N-[(3R)-1-[3-(6-fluoro-1,2-benzoxazol-3-yl)propyl]pyrrolidin-3-yl]naphthalene-2-sulphonamide] | 85% | 3% | 77% | 100% | 0.1 nM | 94% |  | 50% | 99% | 2.3 nM |
| O=S(=O)(NCC1CCN(CCOc2cccc3c2OCCO3)C1)c1ccc2c(c1)CCO2 (centres unmarked) [Compound 306, N-[[1-[2-(2,3-Dihydro-1,4-benzodioxin-5-yloxy)ethyl]pyrrolidin-3-yl]-methyl]-2,3-dihydrobenzofuran-5-sulphonamide] | 90% | 12% | 36% | 51% |  | 26% | 57% | 99% | 81% |  |
| Cc1ccc2sc(S(=O)(=O)N[C@H]3CCN(CCCc4noc5cc(F)ccc45)C3)cc2c1 [Compound 229, N-[(3S)-1-[3-(6-Fluoro-1,2-benzoxazol-3-yl)propyl]pyrrolidin-3-yl]-5-methylbenzothiophene-2-sulphonamide] | 89% | 15% |  | 101% | 2.4 nM | 93% | 75% | 46% |  | 0.6 nM |
| O=S(=O)(N[C@@H]1CCN(CCCc2noc3cc(F)ccc23)C1)c1ccc2ccccc2c1 [Compound 206, N-[(3R)-1-[3-(6-Fluoro-1,2-benzoxazol-3-yl)propyl]pyrrolidin-3-yl]naphthalene-2-sulphonamide] | 93% | 9% | 84% | 101% | 0.3 nM | 95% |  | 68% | 100% | 0.7 nM |
| O=S(=O)(NCC1CCN(CCOc2cccc3c2OCCO3)C1)c1cccc(O)c1 (centres unmarked) [Compound 303, N-[[1-[2-(2,3-Dihydro-1,4-benzodioxin-5-yloxy)ethyl]pyrrolidin-3-yl]-methyl]-3-hydroxy-benzenesulphonamide] | 89% | 9% | 47% | 79% |  | 52% | 68% | 96% | 96% |  |
| Cn1ccc2cc(S(=O)(=O)NC3CCN(CCCc4noc5cc(F)ccc45)C3)ccc21 (centres unmarked) [Compound 218, N-[1-[3-(6-Fluoro-1,2-benzoxazol-3-yl)propyl]pyrrolidin-3-yl]-1-methyl-indole-5-sulphonamide] |  | 0% | 82% | 99% |  | 95% | 77% | 91% | 100% |  |
| Cc1ccc2sc(S(=O)(=O)N[C@@H]3CCN(CCCc4noc5cc(F)ccc45)C3)cc2c1 [Compound 228, N-[(3R)-1-[3-(6-Fluoro-1,2-benzoxazol-3-yl)propyl]pyrrolidin-3-yl]-5-methyl-benzothiophene-2-sulphonamide] | 88% | 12% | 91% | 100% | 0.7 nM | 97% |  | 27% |  | 1 nM |
